“Also recorded” adds a separate entry of the source.
Tested on: S. feltiae infective juveniles (IJ)
Assay: Dispersal assay with S. feltiae infective juveniles on agar plates
Format: in vivo, Steinernema feltiae
Conditions: S. feltiae IJs; for dispersal activity in combination with fractions B and C: ascr#11 1.3 pmol/μl, FIG. 1C, 1D; for dispersal activity by itself: physiologically relevant concentration (ascr#9 40.3 pmol/μl, ascr#11 1.3 pmol/μl), FIG. 1B
Experimental: The dispersal assay for the activity guided purification in FIG. 1 used S. feltiae IJs that were washed with MILLI-Q water three times and incubated in 6 cm petri dishes for 36 h with a small amount (4-5 ml) of MILLI-Q water. The following day, nematodes were placed on a 10.7 g/L agar with gel strength 1010 g/cm^2 (PhytoTechnology Lab. Shawnee Mission, Kans.). Nematode behavior was assayed on multiple plates with internal plate replicates to rule out the possibility that behavior was affected by plate composition. Approximately 300 IJs in 10 μl water were placed on an agar medium and the test compounds or extracts were placed into 1-2 μl to the nematode suspension. Upon absorption (15-20 min) of the liquid, the freely moving nematodes were video-recorded for 5-10 min. Dispersal behavior is temperature and season dependent. During winter, the assay is effective at RT (22±1° C.). During summer, the assay requires a temperature-controlled environment due to effects on nematode behavior above 23° C.
Activity guided fractionation was conducted as described by Srinivasan et al 2008 with modifications. A total of 33 insect host cadavers (G. mellonella larvae) were placed into 70% EtOH and stored at −20° C. until extraction. The insect cadavers were homogenized using 1 g of ceramic zirconium beads (1.25 mm) (ZIRMIL) in 2 ml tubes for 37 sec using a Precellys24 (http://www.precellys.com) homogenizer. Samples were centrifuged for 15 min at 18400 rcf and the supernatant was lyophilized and resuspended in MILLI-Q water. The dispersal activity of nematodes was tested using the dispersal assay described herein above and a physiologically relevant concentration of insect host cadaver extract or fractionated extract. To facilitate calculations for physiologically relevant concentration of the ascarosides, wax worm volume was estimated at 200 μl; the average weight of wax worms was 232 (+/−57 mg; n=19).
The first reverse-phase solid-phase extraction was performed using Sep-Pak Plus C18 cartridges (Waters corporation, Milford, Mass.). The initially collected flow through was termed Fraction A. Thereafter, the column was washed with water, collected and saved. Subsequently, the column was eluted with 50% (Fraction B) and 90% MeOH (Fraction C). The fractions were tested for dispersal activity both individually and in combination. Also individual fractions were analyzed by LC-MS. Fraction A contained ascr#9, which was collected by LC-MS and tested for activity with Fraction B+C.
A total of 33 insect host cadavers ([…] larvae) were placed into 70% EtOH and were homogenized using 1 g of ceramic zirconium beads (1.25 mm) (ZIRMIL) in 2 ml tubes for 37 sec using a Precellys24 (http://www.precellys.com) homogenizer. Samples were centrifuged for 15 min at 18400 rcf and the supernatant was lyophilized and resuspended in MILLI-Q water. The dispersal activity of nematodes was tested using the dispersal assay described herein above. The extracts were resuspended in water as 10 times concentrated. The average weight of insect host is estimated 200 microL and therefore the dry cadavers extract from 1 insect equivalent was diluted in 20 microL of water. One microL of the concentrated extracts was added to the 10 ul of IJ water suspension.

Row | SMILES | dispersal activity in combination with fractions B and C | dispersal activity by itself | dispersal activity in combination with fractions B and C (listed as natural ascr#9) | dispersal activity in combination with fractions B and C (listed as synthetic ascr#9)
1 | C[C@H](CC(=O)O)O[C@@H]1O[C@@H](C)[C@H](O)C[C@H]1O [ascr#11] | sufficient to cause dispersal; also recorded: active with the other two fractions | not active by themselves |  | 
2 | C[C@H](CCC(=O)O)O[C@@H]1O[C@@H](C)[C@H](O)C[C@H]1O [ascr#9] |  | not active by themselves | active | confirms the active component

Reference: US10736326B2, “Nematode dispersant composition and method” (PHERONYM, INC., priority 2016, dated 2020)
